According to US20230263742A1, “A LIPID” (Stemirna Therapeutics Co., Ltd., priority 2021, published 2023):

How the values were obtained:
C2C12 cells = assay: In vitro cell Luc expression, C2C12; assay type: cell-based; conditions: 100 ng Luc mRNA-LNP, 24 h
Procedure: (§1) In vitro cell expression evaluation method: C2C12 cells, HepG2 cells, A20 cells were cultured, and 100,000 cells per well were plated on a 96-well plate. 100 ng of LNP samples were mixed with the cells and incubated for 24 hours (n=3), and then the expression was detected using luciferase quantitative kit 24 h after administration.

Balb/C mice [1] = assay: In vivo Luc expression after intramuscular injection, compared with MC3 (Example 4); conditions: 5 μg Luc mRNA-LNP (DSPC) intramuscularly, Balb/C mice n=3, 6 hours; for in vivo Luc expressions (FIG. 2): compared with MC3
Procedure: The mRNA nanoparticle compositions of SW-II-118, SW-120, and SW-121 were prepared according to the method provided in Example 3. The ratios of the lipids were 50:10:38.5:1.5 mol % for cationic lipid: DSPC: cholesterol: PEG-DMG. The cationic lipid MC3 was a current standard in the art. Accordingly, the standard MC3 formulation including 50 mol % MC3, 10 mol % DSPC, 38.5 mol % cholesterol, and 1.5 mol % PEG-DMG was used as a reference for this study.
5 μg of Luc mRNA-LNP of MC3, SW-II-118, SW-II-120, or SW-II-121 was intramuscularly injected into Balb/C mice (n=3). 6 hours after the administration, the mice were injected intraperitoneally with 0.15 mg/kg […] substrate. 15 minutes after the injection of the substrate, the fluorescence signal intensity was tested under a small animal in vivo imaging instrument.

[2] = Encapsulation efficiency (RIBOGREEN kit); assay type: physicochemical; conditions: Luc mRNA-LNP 50:10:38.5:1.5
Procedure: For nanoparticle compositions including an RNA, a QUANT-IT™ RIBOGREENR®RNA assay (Invitrogen Corporation Carlsbad, Calif.) can be used to evaluate the encapsulation of an RNA by the nanoparticle composition. The samples were diluted to a concentration of approximately 5 μg/mL in a TE buffer solution (10 mM Tris-HCl, 1 mM EDTA, pH 7.5). 50 μL of the diluted samples are transferred to a polystyrene 96 well plate and either 50 μL of TE buffer or 50 μL of a 2% Triton X-100 solution is added to the wells. The plate is incubated at a temperature of 37° C. for 15 minutes. The RIBOGREENR reagent is diluted 1:100 in TE buffer and 100 μL of this solution is added to each well. The fluorescence intensity can be measured using a fluorescence plate reader (Wallac Victor 1420 Multilablel Counter; Perkin Elmer, Waltham, Mass.) at an excitation wavelength of, for example, about 480 nm and an emission wavelength of, for example, about 520 nm. The fluorescence values of the reagent blank are subtracted from that of each of the samples and the percentage of free RNA is determined by dividing the fluorescence intensity of the intact sample (without addition of Triton X-100) by the fluorescence value of the disrupted sample (caused by the addition of Triton X-100).
Encapsulation efficiency detection method: LNP content and encapsulation efficiency detection were carried out according to the RIBOGREEN kit.

Balb/C mice [3] = assay: Luc expression in injection site and liver site after intramuscular administration (Example 5); assay type: in vivo; conditions: 5 μg Luc mRNA-LNP (DSPC) intramuscularly, Balb/C mice n=3, 6 h
Procedure: Further bioluminescence studies were performed to investigate the delivery efficiency of nanoparticle compositions including various lipid compounds according to the present invention. The formulations containing reference cationic lipid M62, M63, M118, and M119 (corresponding to Compound 62, 63, 118, and 119 in PCT/US2018/022717 (WO2018/170306), respectively) were evaluated for comparison. Nanoparticle compositions including DSPC as an optimized phospholipid, cholesterol as a structural lipid, PEG-DMG as a PEG lipid, an RNA, and a compound above mentioned were prepared according to or via methods similar to those described in Examples 1 and 2. The ratios of the lipids were 50:10:38.5:1.5 mol % for the lipid of the present invention: DSPC: cholesterol: PEG-DMG. 5 μg of LNP solution containing luciferase mRNA was administered intramuscularly to Balb/C mice (n=3). 6 hours after administration, mice were injected intraperitoneally with 0.15 mg/kg of D-luciferin substrate. Within 15 minutes after the injection of the substrate, the fluorescence signal intensity in injection site and liver site were tested under a small animal in vivo imaging instrument. Tables 3-4 summarize the fluorescence signal intensity of the nanoparticle compositions including present invention lipids and the reference compounds in injection site and liver site.

[4] = Particle size, PDI and zeta potential by dynamic light scattering; assay type: physicochemical; conditions: for PDI / Zeta potential: Luc mRNA-LNP 50:10:38.5:1.5; for Size: Luc mRNA-LNP, lipid:phospholipid:cholesterol:PEG-DMG 50:10:38.5:1.5
Procedure: A Zetasizer Nano ZS (Malvern Instruments Ltd, Malvern, Worcestershire, UK) can be used to determine the particle size, the polydispersity index (PDI) and the zeta (ζ) potential of the nanoparticle compositions in 1×PBS in determining particle size and 15 mM PBS in determining zeta (ζ) potential.
The evaluation method of particle size and zeta potential: 50 μL LNP sample was diluted with 950 μL purified water to obtain the diluted LNP sample. The sample was placed in a dynamic light scattering laser particle size analyzer (Malvern, ZS-90) for testing.

HepG2 cells = assay: In vitro cell Luc expression, HepG2; assay type: cell-based; conditions: 100 ng Luc mRNA-LNP, 24 h
Procedure: as §1

Question: Which “C2C12 cell, in vitro expression” value (C2C12 cells; phospholipid DAPC) does the source give for `CCCCCCCCC(CCCCCCCC)OC(=O)CCCCCCCN(CCO)CCCCCCCC(=O)OCCc1ccc(CCCCCCC)cc1` [SW-II-121] here?
Answer: 24183

Question: And the “C2C12 cell, in vitro expression” value (C2C12 cells; phospholipid DMPE)?
Answer: 219379.5

Question: And the “C2C12 cell, in vitro expression” value (C2C12 cells; phospholipid DOPE)?
Answer: 1003834.5

Question: What about the “C2C12 cell, in vitro expression” value (C2C12 cells; phospholipid DPPC) of the same molecule?
Answer: 93988

Question: And the “C2C12 cell, in vitro expression” value (C2C12 cells; phospholipid DPPE)?
Answer: 246921

Question: What about the “C2C12 cell, in vitro expression” value (C2C12 cells; phospholipid DSPC) of the same molecule?
Answer: 93333

Question: And the “C2C12 cell, in vitro expression” value (C2C12 cells; phospholipid DSPE)?
Answer: 41556.5

Question: And the “Luc expression in liver site compared with injection site (FIG. 2)” value (Balb/C mice [1])?
Answer: higher than that in injection site

Question: And the “in vivo Luc expressions (FIG. 2)” value (Balb/C mice [1])?
Answer: higher than that of MC3

Question: And the “Encapsulation Efficiency (EE, %)” value ([2]; phospholipid DAPC)?
Answer: 76.6%

Question: And the “Encapsulation Efficiency (EE, %)” value ([2]; phospholipid DMPE)?
Answer: 70.9%

Question: What about the “Encapsulation Efficiency (EE, %)” value ([2]; phospholipid DOPE) of the same molecule?
Answer: 81.5%

Question: And the “Encapsulation Efficiency (EE, %)” value ([2]; phospholipid DPPC)?
Answer: 86.7%

Question: And the “Encapsulation Efficiency (EE, %)” value ([2]; phospholipid DPPE)?
Answer: 84.0%

Question: What about the “Encapsulation Efficiency (EE, %)” value ([2]; phospholipid DSPC) of the same molecule?
Answer: 86.0%

Question: And the “Encapsulation Efficiency (EE, %)” value ([2]; phospholipid DSPE)?
Answer: 68.5%

Question: And the “Luc expression in injection site, I.M. injection site, 6 h (ratio relative to SW-II-134-3 set as 1)” value (Balb/C mice [3])?
Answer: 1.440

Question: And the “Luc expression in liver site, Liver site upon I.M., 6 h (ratio relative to SW-II-137-1 set as 1)” value (Balb/C mice [3])?
Answer: 2.150

Question: And the PDI ([4]; phospholipid DAPC)?
Answer: 0.27 ± 0.01

Question: What about the Zeta potential ([4]; phospholipid DAPC) of the same molecule?
Answer: −2.21 ± 0.53 mV

Question: What about the Size ([4]; phospholipid DAPC) of the same molecule?
Answer: 96.3 ± 2.2 nm

Question: And the PDI ([4]; phospholipid DMPE)?
Answer: 0.20 ± 0.03

Question: What about the Zeta potential ([4]; phospholipid DMPE) of the same molecule?
Answer: 0.01 ± 0.35 mV

Question: What about the Size ([4]; phospholipid DMPE) of the same molecule?
Answer: 139.8 ± 1.1 nm

Question: What about the PDI ([4]; phospholipid DOPE) of the same molecule?
Answer: 0.17 ± 0.03

Question: And the Zeta potential ([4]; phospholipid DOPE)?
Answer: 5.06 ± 0.15 mV

Question: What about the Size ([4]; phospholipid DOPE) of the same molecule?
Answer: 159.87 ± 3.7 nm

Question: And the PDI ([4]; phospholipid DPPC)?
Answer: 0.22 ± 0.02

Question: What about the Zeta potential ([4]; phospholipid DPPC) of the same molecule?
Answer: −1.23 ± 1.43 mV

Question: And the Size ([4]; phospholipid DPPC)?
Answer: 98.7 ± 1.7 nm

Question: And the PDI ([4]; phospholipid DPPE)?
Answer: 0.17 ± 0.03

Question: And the Zeta potential ([4]; phospholipid DPPE)?
Answer: −0.29 ± 0.31 mV

Question: And the Size ([4]; phospholipid DPPE)?
Answer: 98.4 ± 2.7 nm

Question: What about the PDI ([4]; phospholipid DSPC) of the same molecule?
Answer: 0.22 ± 0.03

Question: What about the Zeta potential ([4]; phospholipid DSPC) of the same molecule?
Answer: −1.18 ± 1.18 mV

Question: What about the Size ([4]; phospholipid DSPC) of the same molecule?
Answer: 98.5 ± 1.5 nm

Question: What about the PDI ([4]; phospholipid DSPE) of the same molecule?
Answer: 0.17 ± 0.03

Question: What about the Zeta potential ([4]; phospholipid DSPE) of the same molecule?
Answer: −9.60 ± 2.10 mV

Question: And the Size ([4]; phospholipid DSPE)?
Answer: 116.3 ± 0.2 nm

Question: And the “HepG2 cell, in vitro expression” value (HepG2 cells; phospholipid DAPC)?
Answer: 3110

Question: And the “HepG2 cell, in vitro expression” value (HepG2 cells; phospholipid DMPE)?
Answer: 16466

Question: What about the “HepG2 cell, in vitro expression” value (HepG2 cells; phospholipid DOPE) of the same molecule?
Answer: 42994.5

Question: What about the “HepG2 cell, in vitro expression” value (HepG2 cells; phospholipid DPPC) of the same molecule?
Answer: 16064

Question: What about the “HepG2 cell, in vitro expression” value (HepG2 cells; phospholipid DPPE) of the same molecule?
Answer: 25349.5

Question: And the “HepG2 cell, in vitro expression” value (HepG2 cells; phospholipid DSPC)?
Answer: 7932

Question: And the “HepG2 cell, in vitro expression” value (HepG2 cells; phospholipid DSPE)?
Answer: 1211.5

Question: Which results are given for `CCCCCCCCC(CCCCCCCC)OC(=O)CCCCCCCN(CCO)CCCCCCCC(=O)OCCc1ccc(CCCCCC)cc1` [SW-II-120]?
Answer: C2C12 cell, in vitro expression (C2C12 cells; phospholipid DAPC): 17847.5; C2C12 cell, in vitro expression (C2C12 cells; phospholipid DMPE): 228078.5; C2C12 cell, in vitro expression (C2C12 cells; phospholipid DOPE): 815187.5; C2C12 cell, in vitro expression (C2C12 cells; phospholipid DPPC): 147377.5; C2C12 cell, in vitro expression (C2C12 cells; phospholipid DPPE): 471290.5; C2C12 cell, in vitro expression (C2C12 cells; phospholipid DSPC): 44819; C2C12 cell, in vitro expression (C2C12 cells; phospholipid DSPE): 51132.5; Luc expression in liver site compared with injection site (FIG. 2) (Balb/C mice [1]): higher than that in injection site; in vivo Luc expressions (FIG. 2) (Balb/C mice [1]): higher than that of MC3; Encapsulation Efficiency (EE, %) ([2]; phospholipid DAPC): 84.3%; Encapsulation Efficiency (EE, %) ([2]; phospholipid DMPE): 86.2%; Encapsulation Efficiency (EE, %) ([2]; phospholipid DOPE): 90.9%; Encapsulation Efficiency (EE, %) ([2]; phospholipid DPPC): 84.9%; Encapsulation Efficiency (EE, %) ([2]; phospholipid DPPE): 64.7%; Encapsulation Efficiency (EE, %) ([2]; phospholipid DSPC): 85.3%; Luc expression in injection site, I.M. injection site, 6 h (ratio relative to SW-II-134-3 set as 1) (Balb/C mice [3]): 1.064; Luc expression in liver site, Liver site upon I.M., 6 h (ratio relative to SW-II-137-1 set as 1) (Balb/C mice [3]): 1.318; PDI ([4]; phospholipid DAPC): 0.28 ± 0.02; Zeta potential ([4]; phospholipid DAPC): −4.82 ± 0.28 mV; Size ([4]; phospholipid DAPC): 97.1 ± 1.6 nm; PDI ([4]; phospholipid DMPE): 0.20 ± 0.02; Zeta potential ([4]; phospholipid DMPE): −6.08 ± 0.43 mV; Size ([4]; phospholipid DMPE): 92.7 ± 1.1 nm; PDI ([4]; phospholipid DOPE): 0.13 ± 0.02; Zeta potential ([4]; phospholipid DOPE): 2.09 ± 0.28 mV; Size ([4]; phospholipid DOPE): 142.9 ± 1.9 nm; PDI ([4]; phospholipid DPPC): 0.22 ± 0.01; Zeta potential ([4]; phospholipid DPPC): −3.23 ± 2.95 mV; Size ([4]; phospholipid DPPC): 92.97 ± 0.7 nm; PDI ([4]; phospholipid DPPE): 0.15 ± 0.04; Zeta potential ([4]; phospholipid DPPE): −5.04 ± 1.16 mV; Size ([4]; phospholipid DPPE): 115.3 ± 3.7 nm; PDI ([4]; phospholipid DSPC): 0.20 ± 0.01; Zeta potential ([4]; phospholipid DSPC): 0.61 ± 0.55 mV; Size ([4]; phospholipid DSPC): 88.7 ± 1.1 nm; PDI ([4]; phospholipid DSPE): 0.22 ± 0.02; Zeta potential ([4]; phospholipid DSPE): −5.15 ± 2.37 mV; Size ([4]; phospholipid DSPE): 106.5 ± 5.5 nm; HepG2 cell, in vitro expression (HepG2 cells; phospholipid DAPC): 4555.5; HepG2 cell, in vitro expression (HepG2 cells; phospholipid DMPE): 31448.5; HepG2 cell, in vitro expression (HepG2 cells; phospholipid DOPE): 83649.5; HepG2 cell, in vitro expression (HepG2 cells; phospholipid DPPC): 24199.5; HepG2 cell, in vitro expression (HepG2 cells; phospholipid DPPE): 57343; HepG2 cell, in vitro expression (HepG2 cells; phospholipid DSPC): 13068; HepG2 cell, in vitro expression (HepG2 cells; phospholipid DSPE): 2482
